pIC50: −log10 of the molar value. Like-named read-outs stand apart in the source and are kept apart here.
Columns and labels:
[1] = biological target: T1, rat brain N-type calcium channel subunits (α1B+α2δ+β1b cDNA subunits) (Rattus norvegicus, UniProt Q02294); assay: N-type calcium channel block, whole cell patch clamp in HEK 293 cells; format: cell-based; settings: holding potential −80 mV to +10 mV, 5 mM BaCl2
T1 construct: expressed in transfected cells; host or cells: HEK 293
Description: (§1) Normalized dose-response curves were fit (Sigmaplot 4.0, SPSS Inc., Chicago, Ill.) by the Hill equation to determine IC50 values. Steady-state inactivation curves were plotted as the normalized test pulse amplitude following 5 s inactivating prepulses at +10 mV increments. Inactivation curves were fit (Sigmaplot 4.0) with the Boltzman equation, Ipeak (normalized)=1/(1+exp((V-Vh)z/25.6)), where V and Vh are the conditioning and half inactivation potentials, respectively, and z is the slope factor.
The methods of Example 11 were followed with slight modifications as will be apparent from the description below.
N-type calcium channel blocking activity was assayed in human embryonic kidney cells, HEK 293, stably transfected with the rat brain N-type calcium channel subunits (α1B+α2δ+β1b cDNA subunits). Briefly, cells were cultured in Dulbecco's modified eagle medium (DMEM) supplemented with 10% fetal bovine serum, 200 U/ml penicillin and 0.2 mg/ml streptomycin at 37° C. with 5% CO2. At 85% confluency, cells were split with 0.25% trypsin/1 mM EDTA and plated at 10% confluency on glass coverslips. At 12 hours the medium was. replaced and the cells transfected using a standard calcium phosphate protocol and the appropriate calcium channel cDNAs. Fresh DMEM was supplied and the cells transferred to 28° C./5% CO2. Cells were incubated for 1 to 2 days to whole cell recording.
Whole cell patch clamp experiments were performed using an Axopatch 200B amplifier (Axon Instruments, Burlingame, Calif.) linked to a personal computer equipped with pCLAMP software. The external and internal recording solutions contained, respectively, 5 mM BaCl2, 10 mM MgCl2, 10 mM HEPES, 40 mM TEACl, 10 mM glucose, 87.5 mM CsCl (pH 7.2) and 108 mM CsMS, 4 mM MgCl2, 9 mM EGTA, 9 mM HEPES (pH 7.2). Currents were typically elicited from a holding potential of −80 mV to +10 mV using Clampex software (Axon Instruments). Typically, currents were first elicited with low frequency stimulation (0.067 Hz) and allowed to stabilize prior to application of the compounds. The compounds were then applied during the low frequency pulse trains for two to three minutes to assess tonic block, and subsequently the pulse frequency was increased to 0.2 Hz to assess frequency dependent block. Data were analyzed using Clampfit (Axon Instruments) and SigmaPlot 4.0 (Jandel Scientific).

[2] = biological target: T2, human α1G T-type channels (Homo sapiens, UniProt O43497); assay: Block of α1G T-type channels, whole-cell patch clamp in HEK cells; format: cell-based; settings: test pulse −40 mV
T2 construct: expressed in transfected cells
Experimental: Standard patch-clamp techniques were employed to identify blockers of T-type currents. Briefly, previously described HEK cell lines stably expressing human α1G T-type channels were used for all the recordings (passage #: 4-20, 37° C., 5% CO2). To obtain T-type currents, plastic dishes containing semi-confluent cells were positioned on the stage of a ZEISS AXIOVERT S100 microscope after replacing the culture medium with external solution (Table 3). Whole-cell patches were obtained using pipettes (borosilicate glass with filament, O.D.: 1.5 mm, I.D.: 0.86 mm, 10 cm length), fabricated on a SUTTER P-97 puller with resistance values of ˜5 MΩ (Table 4 ).
T-type currents were reliably obtained by using two voltage protocols: “non-inactivating”, and “inactivation”. In the non-inactivating protocol, the holding potential is set at −110 mV and with a pre-pulse at −100 mV for 1 second prior to the test pulse at −40 mV for 50 ms. In the inactivation protocol, the pre-pulse is at approximately −85 mV for 1 second, which inactivates about ^15% of the T-type channels.
Test compounds were dissolved in external solution, 0.1-0.01% DMSO. After ˜10 min rest, they were applied by gravity close to the cell using a WPI microfil tubing. The “non-inactivated” pre-pulse was used to examine the resting block of a compound. The “inactivated” protocol was employed to study voltage-dependent block. However, the initial data shown below were mainly obtained using the non-inactivated protocol only. IC50 values are shown for various compounds of the invention in Table 5.

[3] = tested on: rat formalin model (paw flinches); assay: Formalin-induced pain model; format: in vivo; settings: 30 mg/kg IP, 10 minutes prior to formalin, saline control=100%
Experimental: […] The compounds were reconstituted to stock solutions of approximately 10 mg/ml in propylene glycol. Eight Holtsman male rats of 275-375 g size were randomly selected per test article.
The following study groups in Table 6 were used, with test article, vehicle control (propylene glycol) and saline delivered intraperitoneally (IP):
Prior to initiation of drug delivery, baseline behavioral and testing data were taken.
On the morning of testing, a small metal band (0.5 g) was loosely placed around the right hind paw. The rat was placed in a cylindrical Plexiglas chamber for adaptation a minimum of 30 minutes. Test Article or Vehicle Control Article was administered 10 minutes prior to formalin injection (50 μl of 5% formalin) into the dorsal surface of the right hindpaw of the rat. The animal was then placed into the chamber of the automated formalin apparatus where movement of the formalin injected paw was monitored and the number of paw flinches tallied by minute over the next 60 minutes (Malmberg, A. B., supra).
Results are presented as Maximum Possible Effect±SEM, where saline control=100% (Table 7)

[4] = biological target: T3, L-type channels (α1C+α2δ+β1b cDNA subunits) (Homo sapiens, UniProt Q13936); assay: Selectivity for N-type over L-type channels, whole cell patch recordings in HEK 293 cells; format: cell-based
T3 construct: expressed in transfected cells; host or cells: HEK 293 (human embryonic kidney cells)
Experimental: (§2) Calcium channel blocking activity was measured using whole cell patch recordings on human embryonic kidney cells transiently expressing rat α1B+α2δ+β1b channels (N-type channels) with 5 mM barium as a charge carrier. Channel block was also measured in P/Q-type channels (α1A+α2δ+β1b cDNA subunits) and L-type channels (α1C+α2δ+β1b cDNA subunits).
(§3) HEK 293 Host cells (ATCC# CRL 1573) were grown in standard DMEM medium supplemented with 2 mM glutamine and 10% fetal bovine serum. HEK 293 cells were transfected by a standard calcium-phosphate-DNA coprecipitation method using the rat α1B+β1b+α2δ N-type calcium channel subunits in a vertebrate expression vector (for example, see Current Protocols in Molecular Biology).
(§4) After an incubation period of 24 to 72 hours, the culture medium was removed and replaced with external recording solution (see below). Whole cell patch clamp experiments were performed using an Axopatch 200B amplifier (Axon Instruments, Burlingame, Calif.) linked to an IBM compatible personal computer equipped with pCLAMP software. Borosilicate glass patch pipettes (Sutter Instrument Co., Novato, Calif.) were polished (Microforge, Narishige, Japan) to a resistance of about 4 MΩ when filled with cesium methanesulfonate internal solution (composition in MM: 109 CsCH3 SO4, 4 MgCl2, 9 EGTA, 9 HEPES, pH 7.2). Cells were bathed in 5 mM Ba^++ (in mM: 5 BaCl2, 1 MgCl2, 10 HEPES, 40 tetraethylammonium chloride, 10 glucose, 87.5 CsCl pH 7.2). Current data shown were elicited by a train of 100 ms test pulses at 0.066 Hz from −100 mV and/or −80 mV to various potentials (min. −20 mV, max. +30 mV). Drugs were perfused directly into the vicinity of the cells, using a microperfusion system.
as §1
(§5) The same protocol was followed for cell lines expressing P/Q-type channels and L-type channels.

[5] = biological target: T4, P/Q-type channels (α1A+α2δ+β1b cDNA subunits) (Homo sapiens, UniProt O00555); assay: Selectivity for N-type over P/Q-type channels, whole cell patch recordings in HEK 293 cells; format: cell-based
T4 construct: expressed in transfected cells; host or cells: HEK 293 (human embryonic kidney cells)
Experimental: as §2, §3, §4, §1, §5

[6] = frequency dependent block, pulse frequency 0.2 Hz, read-out: IC50 at 0.2 Hz
[7] = tonic block, low frequency stimulation 0.067 Hz, read-out: IC50 at 0.067 Hz
[8] = −80 mV (inactivation protocol), read-out: IC50 at −80 mV
[9] = −100 mV (non-inactivating protocol), read-out: IC50 at −100 mV

T1 sequence (Q02294 whole entry): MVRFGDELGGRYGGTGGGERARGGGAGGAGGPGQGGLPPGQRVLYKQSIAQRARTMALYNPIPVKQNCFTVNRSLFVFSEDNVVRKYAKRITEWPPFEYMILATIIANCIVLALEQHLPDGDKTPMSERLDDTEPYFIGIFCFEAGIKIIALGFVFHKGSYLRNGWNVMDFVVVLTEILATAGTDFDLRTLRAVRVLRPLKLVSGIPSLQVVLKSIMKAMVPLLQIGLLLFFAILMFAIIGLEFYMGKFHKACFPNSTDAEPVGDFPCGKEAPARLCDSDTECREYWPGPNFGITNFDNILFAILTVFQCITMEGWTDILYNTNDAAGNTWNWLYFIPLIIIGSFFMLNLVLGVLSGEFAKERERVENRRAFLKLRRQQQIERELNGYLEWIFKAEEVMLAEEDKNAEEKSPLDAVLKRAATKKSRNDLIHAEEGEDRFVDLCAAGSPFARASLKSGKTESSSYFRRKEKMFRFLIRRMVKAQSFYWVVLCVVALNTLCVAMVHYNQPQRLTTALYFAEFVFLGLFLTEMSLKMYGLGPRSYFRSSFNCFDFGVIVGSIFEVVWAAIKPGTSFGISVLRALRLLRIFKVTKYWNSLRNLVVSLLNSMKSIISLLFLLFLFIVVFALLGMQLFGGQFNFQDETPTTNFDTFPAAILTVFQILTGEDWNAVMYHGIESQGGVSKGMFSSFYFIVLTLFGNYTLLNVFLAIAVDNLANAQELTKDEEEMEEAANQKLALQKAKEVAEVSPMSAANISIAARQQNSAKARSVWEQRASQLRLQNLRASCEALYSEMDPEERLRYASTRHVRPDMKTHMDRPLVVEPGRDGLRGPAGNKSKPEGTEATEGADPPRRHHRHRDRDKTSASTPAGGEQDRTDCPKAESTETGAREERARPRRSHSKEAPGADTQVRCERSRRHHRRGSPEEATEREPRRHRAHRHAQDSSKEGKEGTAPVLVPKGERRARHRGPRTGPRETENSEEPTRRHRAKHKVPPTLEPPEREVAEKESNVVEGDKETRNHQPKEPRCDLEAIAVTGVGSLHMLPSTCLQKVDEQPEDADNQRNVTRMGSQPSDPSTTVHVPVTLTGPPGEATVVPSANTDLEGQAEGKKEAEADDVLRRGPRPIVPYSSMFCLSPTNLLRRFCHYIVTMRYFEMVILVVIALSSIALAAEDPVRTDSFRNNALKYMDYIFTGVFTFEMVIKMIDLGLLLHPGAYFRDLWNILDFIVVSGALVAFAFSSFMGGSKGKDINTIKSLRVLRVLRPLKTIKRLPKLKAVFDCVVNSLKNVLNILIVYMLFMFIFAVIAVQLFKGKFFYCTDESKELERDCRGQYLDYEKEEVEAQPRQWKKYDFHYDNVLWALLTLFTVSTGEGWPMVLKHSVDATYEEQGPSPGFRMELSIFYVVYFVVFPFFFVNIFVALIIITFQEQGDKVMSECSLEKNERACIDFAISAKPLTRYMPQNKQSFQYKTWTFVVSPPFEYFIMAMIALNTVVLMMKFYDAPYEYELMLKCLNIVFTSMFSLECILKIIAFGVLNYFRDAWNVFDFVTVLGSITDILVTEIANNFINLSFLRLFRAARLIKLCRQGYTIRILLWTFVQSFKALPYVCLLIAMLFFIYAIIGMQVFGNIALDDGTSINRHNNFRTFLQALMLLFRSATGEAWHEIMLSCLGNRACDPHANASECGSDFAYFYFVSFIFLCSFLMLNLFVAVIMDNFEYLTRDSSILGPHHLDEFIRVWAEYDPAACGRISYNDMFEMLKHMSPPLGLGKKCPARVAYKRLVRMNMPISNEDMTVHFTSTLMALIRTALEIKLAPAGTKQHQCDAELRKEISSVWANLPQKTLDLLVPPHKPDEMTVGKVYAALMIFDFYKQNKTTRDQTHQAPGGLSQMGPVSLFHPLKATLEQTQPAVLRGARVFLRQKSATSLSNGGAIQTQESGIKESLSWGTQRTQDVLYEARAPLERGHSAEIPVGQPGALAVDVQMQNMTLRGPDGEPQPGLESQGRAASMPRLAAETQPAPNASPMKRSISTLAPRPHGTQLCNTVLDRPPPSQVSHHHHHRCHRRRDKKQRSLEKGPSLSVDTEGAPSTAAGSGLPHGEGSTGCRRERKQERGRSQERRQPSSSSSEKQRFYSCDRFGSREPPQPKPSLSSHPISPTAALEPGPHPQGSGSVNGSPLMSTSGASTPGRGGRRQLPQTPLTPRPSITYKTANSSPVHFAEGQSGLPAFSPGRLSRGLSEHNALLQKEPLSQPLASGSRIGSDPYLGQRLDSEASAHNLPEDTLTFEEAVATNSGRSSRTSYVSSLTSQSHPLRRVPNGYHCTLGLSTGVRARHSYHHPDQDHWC
T1 sequence (P54290 25-944 partner limits assumed): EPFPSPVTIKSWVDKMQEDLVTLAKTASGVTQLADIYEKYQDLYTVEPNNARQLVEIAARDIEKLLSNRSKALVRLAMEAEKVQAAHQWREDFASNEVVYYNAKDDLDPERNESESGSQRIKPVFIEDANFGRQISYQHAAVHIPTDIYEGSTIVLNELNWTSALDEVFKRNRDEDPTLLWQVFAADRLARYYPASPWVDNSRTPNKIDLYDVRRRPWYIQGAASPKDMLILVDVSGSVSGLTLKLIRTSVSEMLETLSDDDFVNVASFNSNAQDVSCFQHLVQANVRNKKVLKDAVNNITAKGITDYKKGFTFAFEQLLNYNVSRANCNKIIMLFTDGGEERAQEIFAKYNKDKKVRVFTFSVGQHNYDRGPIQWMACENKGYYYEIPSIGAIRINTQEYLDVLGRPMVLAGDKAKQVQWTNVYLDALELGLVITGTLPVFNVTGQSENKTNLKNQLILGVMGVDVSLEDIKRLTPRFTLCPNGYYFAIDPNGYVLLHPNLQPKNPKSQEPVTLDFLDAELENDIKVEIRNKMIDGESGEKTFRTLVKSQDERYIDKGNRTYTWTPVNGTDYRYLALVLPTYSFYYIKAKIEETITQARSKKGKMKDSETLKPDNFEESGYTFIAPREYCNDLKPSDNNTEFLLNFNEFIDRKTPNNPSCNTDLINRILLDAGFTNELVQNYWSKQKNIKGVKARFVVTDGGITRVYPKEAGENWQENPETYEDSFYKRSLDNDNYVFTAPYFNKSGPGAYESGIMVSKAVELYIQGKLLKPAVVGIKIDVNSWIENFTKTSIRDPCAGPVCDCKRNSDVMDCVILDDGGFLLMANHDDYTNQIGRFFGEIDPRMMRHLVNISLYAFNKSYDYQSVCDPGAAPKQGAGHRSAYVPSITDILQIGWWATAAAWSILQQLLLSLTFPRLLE
T1 sequence (P54290 945-1091 partner limits assumed): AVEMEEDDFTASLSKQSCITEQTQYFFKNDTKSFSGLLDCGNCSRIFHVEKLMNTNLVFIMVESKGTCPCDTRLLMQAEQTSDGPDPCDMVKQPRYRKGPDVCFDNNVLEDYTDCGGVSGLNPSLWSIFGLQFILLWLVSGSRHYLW
T1 sequence (P54283 whole entry partner): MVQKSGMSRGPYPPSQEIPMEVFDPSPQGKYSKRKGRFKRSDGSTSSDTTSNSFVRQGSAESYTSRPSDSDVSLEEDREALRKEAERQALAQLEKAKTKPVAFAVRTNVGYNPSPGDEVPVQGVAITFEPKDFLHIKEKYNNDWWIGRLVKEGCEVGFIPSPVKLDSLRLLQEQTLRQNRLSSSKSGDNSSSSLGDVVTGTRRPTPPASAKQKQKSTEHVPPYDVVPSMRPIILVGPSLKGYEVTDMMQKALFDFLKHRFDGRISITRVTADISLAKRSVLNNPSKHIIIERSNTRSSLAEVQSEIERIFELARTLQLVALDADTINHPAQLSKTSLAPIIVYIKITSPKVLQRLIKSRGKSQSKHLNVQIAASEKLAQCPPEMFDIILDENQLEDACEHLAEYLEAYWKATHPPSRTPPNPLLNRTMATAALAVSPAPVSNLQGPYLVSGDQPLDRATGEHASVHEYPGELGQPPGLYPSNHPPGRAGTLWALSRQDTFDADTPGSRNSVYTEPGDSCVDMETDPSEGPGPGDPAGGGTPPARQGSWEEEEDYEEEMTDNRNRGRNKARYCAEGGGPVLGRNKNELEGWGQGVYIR

Molecule	pIC50 [1, 6]	pIC50 [1, 7]	pIC50 [2, 8]	pIC50 [2, 9]	selectivity for N-type over L-type channels [4]	selectivity for N-type over P/Q-type channels [5]	IC50 at −80 mV ([2]; −80 mV (inactivation protocol))	IC50 at −100 mV ([2]; −100 mV (non-inactivating protocol))	Maximum Possible Effect ± SEM, Phase I ([3]; Phase I)	Maximum Possible Effect ± SEM, Phase II ([3]; Phase II)	Maximum Possible Effect ± SEM, Phase IIA ([3]; Phase IIA)
CN(C(=O)CC(c1ccccc1)c1ccccc1)[C@H]1CCN(C(c2ccccc2)c2ccccc2)C1 [Compound P6, (S)-N-(1-Benzhydryl-pyrrolidin-3-yl)-N-methyl-3,3-diphenyl-propionamide]	6.44	6.20	6.34	5.94							
(S)-6,6-Bis-(4-fluoro-phenyl)-hexanoic acid[1-(3,5-di-tert-butyl-4-methoxy-benzoyl)-pyrrolidin-3-yl]-methyl-amide [Compound P5]	7.54	7.35	7.89	7.14	greater than 2000 fold	approximately 31 fold			88 ± 13%	62 ± 4%	47 ± 5%
CN(C(=O)CC(c1ccccc1)c1ccccc1)[C@@H]1CCN(Cc2ccccn2)C1 [Compound P9, (R)-N-Methyl-3,3-diphenyl-N-(1-pyridin-2-ylmethyl-pyrrolidin-3-yl)-propionamide]	6.21	5.89	5.62 to 6.80	5.35 to 6.82							
CN(C(=O)CC(c1ccccc1)c1ccccc1)[C@@H]1CCN(Cc2cccnc2)C1 [Compound P8, (R)-N-Methyl-3,3-diphenyl-N-(1-pyridin-3-ylmethyl-pyrrolidin-3-yl)-propionamide]	6.01	5.52					No block	No block			
CN(C(=O)CC(c1ccccc1)c1ccccc1)[C@@H]1CCN(C(c2ccccc2)c2ccccc2)C1 [Compound P3, (R)-N-(1-Benzhydryl-pyrrolidin-3-yl)-N-methyl-3,3-diphenyl-propionamide]	7.36	6.95	6.44	6.04							

Continued, in another order:

pIC50 [1, 6]	pIC50 [1, 7]	pIC50 [2, 8]	pIC50 [2, 9]	selectivity for N-type over L-type channels [4]	selectivity for N-type over P/Q-type channels [5]	IC50 at −80 mV ([2]; −80 mV (inactivation protocol))	IC50 at −100 mV ([2]; −100 mV (non-inactivating protocol))	Molecule	Maximum Possible Effect ± SEM, Phase I ([3]; Phase I)	Maximum Possible Effect ± SEM, Phase II ([3]; Phase II)	Maximum Possible Effect ± SEM, Phase IIA ([3]; Phase IIA)
6.60	6.44	7.00	6.22					CN(C(=O)CN(c1ccccc1)c1ccccc1)[C@H]1CCN(C(c2ccccc2)c2ccccc2)C1 [Compound P14, (S)-N-(1-Benzhydryl-pyrrolidin-3-yl)-2-diphenylamino-N-methyl-acetamide]			
6.22	5.99	6.03	5.66					CN(C(=O)NC(c1ccccc1)c1ccccc1)[C@H]1CCN(C(c2ccccc2)c2ccccc2)C1 [Compound P16, (S)-3-Benzhydryl-1-(1-benzhydryl-pyrrolidin-3-yl)-1-methyl-urea]			
6.52	6.41	6.43	5.74					CN(C(=O)CC(c1ccccc1)c1ccccc1)[C@@H]1CCN(C(c2ccccc2)c2cccnc2)C1 (stereo partly drawn) [Compound P11, (R)-N-Methyl-3,3-diphenyl-N-[1-(phenyl-pyridin-3-yl-methyl)-pyrrolidin-3-yl]-propionamide]			
6.33	6.04	6.31	5.30					CN(C(=O)CC(c1ccccc1)c1ccccc1)[C@H]1CCN(Cc2ccncc2)C1 [Compound P13, (S)-N-Methyl-3,3-diphenyl-N-(1-pyridin-4-ylmethyl-pyrrolidin-3-yl)-propionamide]			
6.28	6.15	6.05	5.46					CN(C(=O)CC(c1ccccc1)c1ccccc1)[C@@H]1CCN(C(c2ccccc2)c2ccncc2)C1 (stereo partly drawn) [Compound P10, (R)-N-Methyl-3,3-diphenyl-N-[1-(phenyl-pyridin-4-yl-methyl)-pyrrolidin-3-yl]-propionamide]			
6.55	6.44	6.47	6.19					CN(C(=O)CC(c1ccccc1)c1ccccc1)[C@@H]1CCN(C(c2ccccc2)c2ccccn2)C1 (stereo partly drawn) [Compound P12, (R)-N-Methyl-3,3-diphenyl-N-[1-(phenyl-pyridin-2-yl-methyl)-pyrrolidin-3-yl]-propionamide]			
6.67	6.54	6.94	6.16					CN(CC(=O)N(c1ccccc1)c1ccccc1)[C@H]1CCN(C(c2ccccc2)c2ccccc2)C1 [Compound P15, (S)-2-[(1-Benzhydryl-pyrrolidin-3-yl)-methyl-amino]-N,N-diphenyl-acetamide]			
